Measurements as given in US20240252486A1, “ALGOSTATIC AGENTS FOR PREVENTING TRANSITION FROM ACUTE TO CHRONIC PAIN” (The Regents of the University of California, priority 2021, published 2024).

Legend:
[1] = test system: formalin-injected mice; experiment: Formalin-induced chronic pain-like state (CPLS): persistent hypersensitivity to heat and mechanical stimuli; format: in vivo, mouse
[2] = test system: formalin-injected mice; experiment: Formalin-induced paw edema; format: in vivo, mouse
Procedure: Paw edema was measured with a digital caliper (Fisher Scientific, USA) and is expressed as the difference (A paw thickness, mm) between ipsilateral and contralateral paws.

[3] = Body-weight gain after formalin; format: in vivo, mouse; conditions: ARN19702 30 mg-kg^−1 IP once daily for 3 days starting 24 h after formalin; PFD14
[4] = test system: formalin-injected mice; experiment: Ex vivo diffusion tensor imaging of spinal cord and forebrain; format: in vivo, mouse; conditions: ARN19702 30 mg-kg^−1 IP once daily for 3 days starting 24 h after formalin; PFD14
Procedure: Magnetic Resonance Imaging (MRI) acquisition: Mice were anesthetized, flushed intracardially with ice-cold PBS and then with 4% PAF in PBS (pH 7.4). Brains and spinal cords were removed within their osseous structures and post-fixed overnight in 4% PAF, followed by three 5-min washes with PBS the next day, and stored in PBS (pH 7.4) containing sodium azide (0.02%, weight) at 4 °C. Ex vivo diffusion tensor imaging (DTI) and T2 weighted imaging ([…]) studies were performed using a 9.4 T Bruker Avance imager (Bruker Biospin, Billerica, USA). Data were acquired with the following parameters: 1.5 cm field of view, 0.5 mm slice thickness, and a 128×128 acquisition matrix and zero filled to 256×256. DTI parameters were as follows: repetition time (TR)/echo time (TE)=8000 ms/35.66 ms, 30 isolinear directions, B=[…], and 5 B0 images acquired prior to weighted images. […] parameters were TR/TE=4000/10 ms with 10 equally spaced echoes. Brain: We used 3D automatic registration for unbiased region parcellation to analyze DTI metrics in brain structures. Scans underwent eddy current correction and brain was digitally removed from surrounding skull and muscles using 3D Pulse-Coupled Neural Networks (PCNN3D v1.2) in MATLAB R2017a (MathWorks). […] The resultant maps were then analyzed in DSI studio (http://dsi-studio.labsolver.org). […]

[5] = as effectively as does ARN077; cited from earlier work
[6] = pretreatment, ARN16186 10 mg-kg^−1 IP, ARN19702 30 mg-kg^−1 IP, wild-type mice, 1% formalin

CCS(=O)(=O)c1ccccc1C(=O)N1CCN(c2nc3ccc(F)cc3s2)C[C@@H]1C [ARN19702]
protection from CPLS consolidation ([1]; ARN19702 30 mg-kg^−1 IP given on PFD1 or PFD5 to PFD9): no such effect
protection from CPLS consolidation ([1]; ARN19702 30 mg-kg^−1 IP given on PFD2): partially effective
protection from CPLS consolidation ([1]; ARN19702 30 mg-kg^−1 IP given once on PFD3 or PFD4): full protection
sex dependence of the protective effects (contralateral hyperalgesia in female mice) ([1]; ARN19702 30 mg-kg^−1 IP once daily PFD1 to PFD3): not sex-dependent
CPLS consolidation ([1]; ARN19702 30 mg-kg^−1 IP once daily for 3 consecutive days starting 24 h after formalin, male mice): effectively halted
evoked hypersensitivity (sensory responses) ([1]; ARN19702 30 mg-kg^−1 IP once daily for 3 days starting 24 h after formalin, male mice): normalizing
pain behaviors (acute effect) ([1]; ARN19702 30 mg-kg^−1 IP, at all time points PFD1 to PFD9): temporarily attenuated
transition to CPLS in PPAR-α-null mice ([1]; ARN19702 30 mg-kg^−1 IP, Ppara^−/− mice, PFD14): unaffected
persistent hypersensitivity (CPLS) elicited by formalin ([1]; post-injury intrathecal infusion, 30 ng, 5 μL, at PFD2 and PFD4, assessed PFD14): stopped
NAAA-null phenotype (weakened nocifensive response, no inflammation or persistent hypersensitivity after formalin) ([1]; pretreatment of wild-type mice, ARN19702 30 mg-kg^−1 IP, ARN16186 10 mg-kg^−1 IP): recapitulated
persistent contralateral hyperalgesia (PFD14) [1, 6]: prevents
paw edema (PFD14) [2, 6]: prevents
paw edema ([2]; three-day ARN19702 regimen (30 mg-kg^−1 IP) after formalin, PFD14): no detectable influence
body-weight gain [3]: normalizing
CPLS-associated changes in spinal and forebrain DTI measures [4]: reversing
nociceptive behavior evoked by formalin or CCI [5]: suppresses
